Usually T/C stands for the result in the treated group divided by that in the control group, in per cent.

This is an account of results in PubChem BioAssay AID180 (DTP/NCI, 2004).

“And” between values parts separate entries of the source, which are not always exact repeats. Equal values may be shown once.

For this experiment, the system named is BDF1 mice, Adenocarcinoma 755 s.c., tumor weight T/C. In words: NCI In Vivo Anticancer Drug Screen. Data for tumor model Adenocarcinoma 755 (subcutaneous) in B6D2F1 (BDF1) mice. As to conditions: endpoint: mean tumor weight, higher = larger tumour. The method, boiled down:
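Readout: T/C, i.e. treated-group measurement over vehicle-control measurement. Endpoint is survival or tumor size in tumor-bearing mice given compound.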

The mark [1] stands for this setting: dose: 75.0 mg/kg/injection, schedule: Q01DX011 (ip), vehicle: methylcellulose (MC).
Where [2] appears, read: dose: 25.0 mg/kg/injection, schedule: Q01DX011 (ip), vehicle: methylcellulose (MC).
The mark [3] stands for this setting: dose: 225.0 mg/kg/injection, schedule: Q01DX011 (ip), vehicle: methylcellulose (MC).
Where [4] appears, read: dose: 15.0 mg/kg/injection, schedule: Q01DX011 (ip), vehicle: methylcellulose (MC).
Where [5] appears, read: dose: 50.0 mg/kg/injection, schedule: Q01DX011 (ip), vehicle: methylcellulose (MC).
Setting [6] is: dose: 100.0 mg/kg/injection, schedule: Q01DX011 (ip), vehicle: methylcellulose (MC).
[7] abbreviates: dose: 28.0 mg/kg/injection, schedule: Q01DX011 (ip), vehicle: methylcellulose (MC).
Where [8] appears, read: dose: 12.5 mg/kg/injection, schedule: Q01DX011 (ip), vehicle: methylcellulose (MC).
Setting [9] is: dose: 200.0 mg/kg/injection, schedule: Q01DX011 (ip), vehicle: other.
Where [10] appears, read: dose: 25.0 mg/kg/injection, schedule: Q01DX011 (ip), vehicle: carboxymethylcellulose (CMC).

On to `Nc1ncnc2c1ncn2CCCl`, for which the T/C is 84 % of control (dose: 37.5 mg/kg/injection, schedule: Q01DX011 (ip), vehicle: methylcellulose (MC)) and 31 % of control under setting [1].

With `Nc1nc(SCc2ccccc2)c2ncn(C3CCCCC3)c2n1`, the T/C is, setting by setting: under setting [2], 113 % of control; under setting [1], 121 % of control; under setting [3], 210 % of control.

On to `CC1CN(Cc2ccco2)C(=S)N(c2ccccc2)C1=O` (stereo unspecified), for which the T/C was 81 % of control under setting [4]; 84 % of control (dose: 31.0 mg/kg/injection, schedule: Q01DX011 (ip), vehicle: methylcellulose (MC)); 99 % of control (dose: 62.0 mg/kg/injection, schedule: Q01DX011 (ip), vehicle: methylcellulose (MC)); 84 % of control (dose: 125.0 mg/kg/injection, schedule: Q01DX011 (ip), vehicle: methylcellulose (MC)); 98 % of control (dose: 250.0 mg/kg/injection, schedule: Q01DX011 (ip), vehicle: methylcellulose (MC)).

With `COc1ccc(-n2cnc3c(N)nc(N)nc32)cc1`, the T/C under setting [2] was 68 % of control; the T/C under setting [5] was 62 % of control; the T/C under setting [6] was 50 % of control; the T/C (dose: 200.0 mg/kg/injection, schedule: Q01DX011 (ip), vehicle: methylcellulose (MC)) is 57 % of control.

`CS(=O)(=O)OCCC(=O)N1CN(C(=O)CCOS(C)(=O)=O)CN(C(=O)CCOS(C)(=O)=O)C1`: the T/C under setting [7] was 115 % of control; the T/C (dose: 57.0 mg/kg/injection, schedule: Q01DX011 (ip), vehicle: methylcellulose (MC)) was 110 % of control; the T/C under setting [3] was 81 % of control.

Regarding `CC(C)Cn1cnc2c(SCc3ccc(Cl)cc3Cl)nc(N)nc21`, the T/C is, setting by setting: (dose: 9.0 mg/kg/injection, schedule: Q01DX011 (ip), vehicle: other) 78 % of control; under setting [8], 41 % of control; (dose: 18.0 mg/kg/injection, schedule: Q01DX011 (ip), vehicle: other) 78 % of control; under setting [2], 65 % of control; (dose: 37.0 mg/kg/injection, schedule: Q01DX011 (ip), vehicle: other) 92 % of control; (dose: 38.0 mg/kg/injection, schedule: Q01DX011 (ip), vehicle: methylcellulose (MC)) 74 % of control. For the same compound, the T/C was 87 % of control under setting [5]; 113 % of control under setting [1]; 69 % of control under setting [6]; 80 % of control (dose: 150.0 mg/kg/injection, schedule: Q01DX011 (ip), vehicle: methylcellulose (MC)); 7 % of control and 15 % of control under setting [9]; 59 % of control (dose: 300.0 mg/kg/injection, schedule: Q01DX011 (ip), vehicle: methylcellulose (MC)). The T/C (dose: 400.0 mg/kg/injection, schedule: Q01DX011 (ip), vehicle: other) is 24 % of control and the T/C (dose: 600.0 mg/kg/injection, schedule: Q01DX011 (ip), vehicle: methylcellulose (MC)) is 91 % of control.

Turning to `CCSc1nc(Cl)cc(Sc2nc(N)nc3nc[nH]c23)n1`, the T/C runs as follows: (dose: 2.5 mg/kg/injection, schedule: Q01DX011 (ip), vehicle: methylcellulose (MC)) 84 % of control; (dose: 5.0 mg/kg/injection, schedule: Q01DX011 (ip), vehicle: methylcellulose (MC)) 65 % of control; (dose: 10.0 mg/kg/injection, schedule: Q01DX011 (ip), vehicle: methylcellulose (MC)) 80 % of control; (dose: 12.5 mg/kg/injection, schedule: Q01DX011 (ip), vehicle: carboxymethylcellulose (CMC)) 82 % of control; under setting [4], 40 % of control; (dose: 18.0 mg/kg/injection, schedule: Q01DX011 (ip), vehicle: methylcellulose (MC)) 6 % of control. Also, the T/C was 69 % of control under setting [10]; 20 % of control (dose: 36.0 mg/kg/injection, schedule: Q01DX011 (ip), vehicle: methylcellulose (MC)); 24 % of control (dose: 50.0 mg/kg/injection, schedule: Q01DX011 (ip), vehicle: carboxymethylcellulose (CMC)); 16 % of control (dose: 72.0 mg/kg/injection, schedule: Q01DX011 (ip), vehicle: methylcellulose (MC)); 1 % of control (dose: 100.0 mg/kg/injection, schedule: Q01DX011 (ip), vehicle: carboxymethylcellulose (CMC)); 15 % of control (dose: 144.0 mg/kg/injection, schedule: Q01DX011 (ip), vehicle: methylcellulose (MC)). The T/C (dose: 200.0 mg/kg/injection, schedule: Q01DX011 (ip), vehicle: carboxymethylcellulose (CMC)) was 3 % of control.

`C=CC(O)CN1CC1(C)C` (stereo unspecified) (tested in a mixture with another compound): the T/C by setting is: (dose: 1.9 mg/kg/injection, schedule: Q01DX011 (ip), vehicle: methylcellulose (MC)) 99 % of control; (dose: 3.75 mg/kg/injection, schedule: Q01DX011 (ip), vehicle: methylcellulose (MC)) 107 % of control; under setting [4], 75 % of control.

Take `Clc1ccc(CSc2ncnc3c2ncn3C2CCCCO2)cc1` (stereo unspecified): the T/C is 84 % of control (dose: 20.0 mg/kg/injection, schedule: Q01DX011 (ip), vehicle: methylcellulose (MC)) and 31 % of control (dose: 65.0 mg/kg/injection, schedule: Q01DX011 (ip), vehicle: methylcellulose (MC)).

Take `CS(=O)(=O)OCCC(=O)NCNC(=O)CCOS(C)(=O)=O`: the T/C was 77 % of control (dose: 7.0 mg/kg/injection, schedule: Q01DX011 (ip), vehicle: carboxymethylcellulose (CMC)); 79 % of control under setting [8]; 42 % of control (dose: 14.0 mg/kg/injection, schedule: Q01DX011 (ip), vehicle: carboxymethylcellulose (CMC)); 39 % of control under setting [2]; 4 % of control (dose: 28.0 mg/kg/injection, schedule: Q01DX011 (ip), vehicle: carboxymethylcellulose (CMC)); 5 % of control under setting [7]. Besides, the T/C under setting [5] was 3 % of control.

As to `S=c1nc[nH]c2c1ncn2C1CC1`, the T/C by setting is: (dose: 31.0 mg/kg/injection, schedule: Q01DX011 (ip), vehicle: carboxymethylcellulose (CMC)) 86 % of control; (dose: 62.0 mg/kg/injection, schedule: Q01DX011 (ip), vehicle: carboxymethylcellulose (CMC)) 89 % of control; (dose: 125.0 mg/kg/injection, schedule: Q01DX011 (ip), vehicle: carboxymethylcellulose (CMC)) 86 % of control; (dose: 250.0 mg/kg/injection, schedule: Q01DX011 (ip), vehicle: carboxymethylcellulose (CMC)) 33 % of control; (dose: 500.0 mg/kg/injection, schedule: Q01DX011 (ip), vehicle: carboxymethylcellulose (CMC)) 59 % of control.

As to `NNc1nncc2ccccc12`, the T/C is 90 % of control (dose: 37.5 mg/kg/injection, schedule: Q01DX011 (ip), vehicle: carboxymethylcellulose (CMC)) and 47 % of control (dose: 75.0 mg/kg/injection, schedule: Q01DX011 (ip), vehicle: carboxymethylcellulose (CMC)).

In the case of `C[C@]12CC[C@H](O)C[C@H]1CC[C@@H]1[C@@H]2CC[C@]2(C)[C@@H](C3=CC(=O)OC3)CC[C@]12O`, the T/C (dose: 5.0 mg/kg/injection, schedule: Q01DX011 (ip), vehicle: carboxymethylcellulose (CMC)) was 72 % of control; the T/C (dose: 10.0 mg/kg/injection, schedule: Q01DX011 (ip), vehicle: carboxymethylcellulose (CMC)) is 67 % of control; the T/C under setting [10] is 49 % of control.

In the case of `Oc1ccc2ccccc2c1N=Nc1ccccc1`, the T/C is 69 % of control (dose: 50.0 mg/kg/injection, schedule: Q01DX011 (ip), vehicle: saline); 55 % of control (dose: 100.0 mg/kg/injection, schedule: Q01DX011 (ip), vehicle: saline); 50 % of control (dose: 200.0 mg/kg/injection, schedule: Q01DX011 (ip), vehicle: saline).

Take `CCOC1CCCC(n2cnc3c(=S)nc[nH]c32)O1` (stereo unspecified): the T/C reads like this: (dose: 4.69 mg/kg/injection, schedule: Q01DX011 (ip), vehicle: methylcellulose (MC)) 29 % of control; (dose: 9.38 mg/kg/injection, schedule: Q01DX011 (ip), vehicle: methylcellulose (MC)) 2 % of control.

Turning to `C=C(C)C(=O)OCC1CO1` (stereo unspecified), the T/C reads like this: (dose: 100.0 mg/kg/injection, schedule: Q01DX011 (ip), vehicle: water) 90 % of control; (dose: 200.0 mg/kg/injection, schedule: Q01DX006 (ip), vehicle: water) 95 % of control; under setting [9], 102 % of control; (dose: 200.0 mg/kg/injection, schedule: Q01DX011 (ip), vehicle: water) 77 % of control; (dose: 300.0 mg/kg/injection, schedule: Q01DX006 (ip), vehicle: water) 86 % of control.
